Patent publication US10676466B2, “Crystalline hydrate of the compound (2S,3R)-isopropyl 2-(((2-(1,5-dimethyl-6-oxo-1,6-dihydropyridin-3-yl)-1-((tetrahydro-2H-pyran-4-yl)methyl)-1H-benzo[D]imidazol-5-yl)methyl)amino)-3-hydroxybutanoate edisylate” (GLAXOSMITHKLINE INTELLECTUAL PROPERTY DEVELOPMENT LIMITED, priority 2016, dated 2020)
Where a name gives a salt, the structure may show the parent alone.

How the values were obtained:
recombinant human CES1 = target: T1, recombinant human CES1 (Homo sapiens, UniProt P23141); test: Hydrolysis by hCES-1 (HPLC assay); type: in vitro ADME; conditions: 50 μM test compound, 50 nM CES1, 20° C., pH 7.5, n=2
T1 construct: Recombinant human CES1 (Gly18-Glu563, bearing a polyhistidine tag at the C-terminus); purchased Novoprotein, Summit, N.J., USA C450; host or cells: human cells
T1 sequence (P23141 18-563): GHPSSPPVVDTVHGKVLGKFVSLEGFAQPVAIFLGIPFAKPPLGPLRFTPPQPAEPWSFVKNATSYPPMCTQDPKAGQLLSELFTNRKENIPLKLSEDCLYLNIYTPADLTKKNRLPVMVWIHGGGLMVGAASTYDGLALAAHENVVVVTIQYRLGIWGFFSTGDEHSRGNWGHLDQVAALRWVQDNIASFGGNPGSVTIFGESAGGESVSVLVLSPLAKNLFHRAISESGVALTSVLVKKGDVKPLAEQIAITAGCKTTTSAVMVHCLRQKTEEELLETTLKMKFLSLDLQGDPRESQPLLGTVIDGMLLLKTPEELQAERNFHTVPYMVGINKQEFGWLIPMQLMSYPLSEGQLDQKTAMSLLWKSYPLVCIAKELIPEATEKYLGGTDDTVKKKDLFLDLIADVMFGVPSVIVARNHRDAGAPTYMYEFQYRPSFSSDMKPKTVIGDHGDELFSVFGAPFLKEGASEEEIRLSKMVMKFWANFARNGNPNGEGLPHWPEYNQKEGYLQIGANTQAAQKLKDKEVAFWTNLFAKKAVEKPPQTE
Method: Hydrolysis of ESM-containing BET inhibitors by carboxylesterase 1 (CES1) is one aspect of delivering a targeted molecule. Rates of hydrolysis of certain compounds of the invention by recombinant human CES1 were determined using an HPLC assay. Recombinant human CES1 (Gly18-Glu563, bearing a polyhistidine tag at the C-terminus) expressed in human cells and purified to homogeneity was obtained from Novoprotein, Summit, N.J., USA (catalogue number C450). Reactions were run in 384 well plates at 20° C. in a buffer of 50 mM sodium phosphate pH 7.5/100 mM NaCl. Assays used a fixed concentration of test compound (50 μM) and CES1 (50 nM) and a time course of the reaction was obtained by stopping samples at increasing times by addition of formic acid to lower the pH. Stopped samples were subsequently analysed by HPLC to resolve product acid from unhydrolysed ester, using a 50×2 mm C18 […] reversed-phase column (Phenomenex Gemini) at a flow rate of 1 ml/min using a gradient of acetonitrile in water, containing 0.1% formic acid. Chromatogaphy was monitored using absorbance at 300 nm wavelength. The % of product formed was determined using integrated peak areas and used to determine the initial rate of the reaction. […]

MCP-1 production = test: LPS induced MCP-1 production from human whole blood; type: cell-based; conditions: LPS 200 ng/mL, 18-24 hours
Method: Activation of monocytic cells by agonists of toll-like receptors such as bacterial lipopolysaccharide (LPS) results in production of key inflammatory mediators including MCP-1. Such pathways are widely considered to be central to the pathophysiology of a range of auto-immune and inflammatory disorders. Blood is collected in a tube containing Sodium heparin (Leo Pharmaceuticals) (10 units of heparin/mL of blood). 96-well compound plates containing 1 μL test sample in 100% DMSO were prepared (two replicates on account of donor variability). 130 μL of whole blood was dispensed into each well of the 96-well compound plates and incubated for 30 min at 37° C., 5% CO2. 10 μL of lipopolysaccharide (from Salmonella typhosa; L6386) made up in PBS (200 ng/mL final assay concentration) was added to each well of the compound plates. The plates were then placed in the humidified primary cell incubator for 18-24 hours at 37° C., 5% CO2. 140 μL of PBS was added to all wells of the compound plates containing blood. The plates were then sealed and centrifuged for 10 mins at 2500 rpm. […] 150 μL of 2×MSD Read Buffer T (stock 4×MSD Read Buffer T was diluted 50:50 with de-ionised water) was then added to each well and the plates read on the MSD Sector Imager 6000. Concentration response curves for each compound were generated from the data and an pIC50 value was calculated.

[1] = system: Bromodomains BRD2, BRD3, BRD4 and BRDT; test: Fluoroligand binding to mutated vs non-mutated bromodomain (TR-FRET); design: species or system Human; conditions: single residue mutations in the acetyl lysine binding pocket
Method: The binding of compounds of the invention to Bromodomains BRD2, BRD3, BRD4 and BRDT was assessed using mutated proteins to detect differential binding to either Binding Domain 1 (BD1) or Binding Domain 2 (BD2) on the bromodomain. These single residue mutations in the acetyl lysine binding pocket greatly lower the affinity of the fluoroligand (Reference Compound X) for the mutated domain (>1000 fold selective for the non-mutated domain). Therefore in the final assay conditions, binding of the fluoroligand to the mutated domain cannot be detected and subsequently the assay is suitable to determine the binding of compounds to the single non-mutated bromodomain.
Recombinant Human Bromodomains [(BRD2 (1-473) (Y113A) and (Y386A), BRD3 (1-435) (Y73A) and (Y348A) BRD4 (1-477) (Y97A) and (Y390A) and BRDT (1-397) (Y66A) and (Y309A)] were expressed in E. coli cells (in pET15b vector for BRD2/3/4 and in pET28a vector for BRDT) with a 6-His tag at the N-terminal. The His-tagged Bromodomain pellet was resuspended in 50 mM HEPES (pH7.5), 300 mM NaCl, 10 mM imidazole & 1 μl/ml protease inhibitor cocktail and extracted from the E. coli cells using sonication and purified using a nickel sepharose high performance column, the proteins were washed and then eluted with a linear gradient of 0-500 mM imidazole with buffer 50 mM HEPES (pH7.5), 150 mM NaCl, 500 mM imidazole, over 20 column volumes. […]

SMILES: Cc1cc(-c2nc3cc(CN[C@H](C(=O)OC(C)C)[C@@H](C)O)ccc3n2CC2CCOCC2)cn(C)c1=O (as salt: edisylate) (hydrate or solvate) [Example 1, (2S,3R)-Isopropyl 2-(((2-(1,5-dimethyl-6-oxo-1,6-dihydropyridin-3-yl)-1-((tetrahydro-2H-pyran-4-yl)methyl)-1H-benzo[d]imidazol-5-yl)methyl)amino)-3-hydroxybutanoate]
- melting point: ~ 223 °C

SMILES: Cc1cc(-c2nc3cc(CN[C@H](C(=O)OC(C)C)[C@@H](C)O)ccc3n2CC2CCOCC2)cn(C)c1=O [Example 1, (2S,3R)-Isopropyl 2-(((2-(1,5-dimethyl-6-oxo-1,6-dihydropyridin-3-yl)-1-((tetrahydro-2H-pyran-4-yl)methyl)-1H-benzo[d]imidazol-5-yl)methyl)amino)-3-hydroxybutanoate]
- mean rate of hydrolysis (specific activity of CES1) (recombinant human CES1): 0.21 μM/min/μM
- IC50 (MCP-1 production; Homo sapiens, read-out: mean pIC50, LPS induced MCP-1 production (converted)): 25.1 nM

SMILES: COc1ccc2c(c1)C(c1ccc(Cl)cc1)=N[C@@H](CC(=O)NCCCCCNC(=O)CCCCCC1(C)/C(=C/C=C/C=C/C3=[N+](CCCCS(=O)(=O)O)c4ccc(S(=O)(=O)O)cc4C3(C)C)N(CCCCS(=O)(=O)[O-])c3ccc(S(=O)(=O)O)cc31)c1nnc(C)n1-2 (some centres unmarked) [Reference Compound X]
- selectivity for the non-mutated domain over the mutated domain [1]: > 1000 fold

SMILES: Cc1cc(-c2nc3cc(CN[C@H](C(=O)OC(C)C)[C@@H](C)O)ccc3n2CC2CCOCC2)cn(C)c1=O [edisylate salt of Example 1, Edisylate Salt of (2S,3R)-Isopropyl 2-(((2-(1,5-dimethyl-6-oxo-1,6-dihydropyridin-3-yl)-1-((tetrahydro-2H-pyran-4-yl)methyl)-1H-benzo[d]imidazol-5-yl)methyl)amino)-3-hydroxybutanoate]
- mean pIC50, LPS induced MCP-1 production (MCP-1 production): 7.5
